Measurements taken from patent publication US7179832B2, “Glycogen synthase kinase 3β inhibitor, composition and process for the preparation thereof” (Crystalgenomics, Inc., priority 2003, dated 2007).
Like-named read-outs stand apart in the source and are kept apart here.

Target: GSK-3β (Homo sapiens, UniProt P49841)
Assay: Assay for GSK-3β inhibiting activity (32P-ATP, phospho-CREB peptide substrate, filter paper, CPM)
Assay type: biochemical
Experimental: Assay for GSK-3β inhibiting activity
First, PCR (polymerase chain reaction) was carried out using human DNA as a template as well as primers which were designed to correspond to the 3′- and 5′ ends of the polynucleotide coding human GSK-3β gene (Genbank Accession No.: L33801). The BamH1/XhoI fragment of the amplified PCR product thus obtained was inserted into the pGex vector between the BamH1 and XhoI sites, and the vector obtained was transformed into E. coli BL21(DE3). The transformed cells thus obtained was incubated in […] (1% Bacto-trypton, 0.5% yeast extract, 1% NaCl) containing ampicillin ([…]) until the optical density at 600 nm reached about 0.5. The cultured mixture was cooled to 18° C. and isopropyl β-D-thiogalacto-pyranoside (IPTG) was added thereto to a final concentration of 0.5 mM. After 16 hours, the resultant was centrifuged at 10,000×g for 10 min, the collected cells were suspended in a buffer solution (30 mM Tris-HCl (pH 7.5), 100 mM NaCl, 5% glycerol, 2 mM DTT) and the cells were disrupted using Sonic Dismembrator (Fisher, U.S.A.) in a ice bath. The resulting solution was centrifuged at 16,000 rpm for 30 minutes. […] The purified GSK-3β protein was diluted in a buffer solution (20 mM HEPES (pH 7.5), 5% glycerol, 2 mM DTT) to a final concentration of 50 mM NaCl and the resulting solution was subjected to mono S column chromatography (eluent: linear gradient from 0M to 1M NaCl buffer) using mono S column (Pharmacia Biotech, U.S.A.) equilibrated in the same buffer solution to obtain GSK-3β protein.
The reaction was stopped by adding 5 μl of 5% phosphoric acid to 25 μl of the resulting solution. The resulting mixture was centrifuged at 15,000 rpm for 10 min, 20 μl of the supernatant was added dropwise to Whatman p81 filter paper, and then, the resulting filter paper was washed with 0.5% phosphate buffer for 10 min. The filter paper was further washed 3 times and the enzymatic activity was determined by examining the extent of phospho-CREB peptide phosphorylation which is represented by the unit of count per minute (CPM), measured with a β-counter (Packard, USA).
The GSK-3β inhibiting activity was then calculated in accordance with the following equation:
[formula] wherein the blank represents a value obtained without the use of the enzyme and the compound of the present invention, and the control, in the absence of the compound of the present invention.

[1] = GSK-3β inhibiting activity, 100 nM GSK-3β protein, 100 μM phospho-CREB peptide, 100 μM ATP, 30° C. for 1 hour, read-out: IC50

Sequence of GSK-3β (P49841 whole entry): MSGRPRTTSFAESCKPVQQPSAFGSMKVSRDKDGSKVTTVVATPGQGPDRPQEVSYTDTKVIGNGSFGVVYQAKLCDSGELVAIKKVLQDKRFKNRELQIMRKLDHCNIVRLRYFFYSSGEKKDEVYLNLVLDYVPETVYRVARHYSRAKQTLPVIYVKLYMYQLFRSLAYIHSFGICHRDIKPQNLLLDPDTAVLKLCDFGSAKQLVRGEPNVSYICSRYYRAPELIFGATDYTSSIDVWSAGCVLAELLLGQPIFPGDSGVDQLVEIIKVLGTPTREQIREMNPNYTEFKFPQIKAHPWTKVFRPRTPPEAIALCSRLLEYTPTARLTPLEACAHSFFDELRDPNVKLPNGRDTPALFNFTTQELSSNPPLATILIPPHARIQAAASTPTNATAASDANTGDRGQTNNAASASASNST

Row | Structure (SMILES) | IC50 [1] | IC50 (IC50 (μM))
1 | CN(C)c1ccc(CCNC(=O)c2ccc(O)c3[nH]c(-c4ccc(F)cc4)nc23)cc1 [Compound 135] | > 1 µM | –
2 | CCS(=O)(=O)NCCc1ccc(NC(=O)c2ccc(O)c3[nH]c(-c4ccc(F)cc4Cl)nc23)cc1 [Compound 42] | > 1 µM | –
3 | COc1cc(CCNC(=O)c2ccc(O)c3[nH]c(-c4ccccc4)nc23)ccc1O [Compound 62] | > 1 µM | –
4 | O=C(NCCc1c[nH]cn1)c1ccc(O)c2[nH]c(-c3ccc(F)cc3Cl)nc12 [Compound 154] | > 1 µM | –
5 | O=C(NCCc1ccc(O)cc1)c1ccc(O)c2[nH]c(-c3ccc(Cl)cc3Cl)nc12 [Compound 104] | > 1 µM | –
6 | CN1CCN(CCNC(=O)c2ccc(O)c3[nH]c(-c4ccc(F)cc4)nc23)CC1 [Compound 118] | > 5 µM | –
7 | O=C(CN1CCOCC1)Nc1ccc(CCNC(=O)c2ccc(O)c3nc(-c4ccc(F)cc4)[nH]c23)cc1 [Compound 134] | – | 0.04 µM
8 | NCCc1ccc(NC(=O)c2ccc(O)c3[nH]c(-c4ccc(Cl)cc4Cl)nc23)cc1 [Compound 24] | > 5 µM | –
9 | O=C(Nc1ccc(CO)cc1)c1ccc(O)c2[nH]c(-c3ccccc3)nc12 [Compound 6] | > 1 µM | –
10 | O=C(NCCN1CCOCC1)c1ccc(O)c2[nH]c(-c3ccccc3)nc12 [Compound 66] | > 1 µM | –
11 | CN(C)CC(=O)Nc1ccc(CCNC(=O)c2ccc(O)c3[nH]c(-c4ccc(F)cc4Cl)nc23)cc1 [Compound 158] | 0.23 µM | –
12 | O=C(Nc1ccc(CCNS(=O)(=O)c2cccs2)cc1)c1ccc(O)c2[nH]c(-c3ccc(Cl)cc3Cl)nc12 [Compound 31] | > 1 µM | –
13 | CN(C)CC(=O)Nc1ccc(CCNC(=O)c2ccc(O)c3[nH]c(-c4ccc(Cl)cc4)nc23)cc1 [Compound 88] | 0.22 µM | –
14 | Nc1ccc(NC(=O)c2ccc(O)c3[nH]c(-c4ccc(Cl)cc4Cl)nc23)cc1 [Compound 25] | > 1 µM | –
15 | CN1CCN(CCNC(=O)c2ccc(O)c3[nH]c(-c4ccc(F)cc4Cl)nc23)CC1 [Compound 148] | > 1 µM | –
16 | O=C(NCCc1c[nH]cn1)c1ccc(O)c2[nH]c(-c3ccc(F)cc3)nc12 [Compound 125] | > 1 µM | –
17 | CN1CCN(CC(=O)Nc2ccc(CCNC(=O)c3ccc(O)c4[nH]c(-c5ccc(Cl)cc5)nc34)cc2)CC1 [Compound 86] | 0.25 µM | –
18 | CCS(=O)(=O)NCCc1ccc(NC(=O)c2ccc(O)c3[nH]c(-c4ccc(F)cc4F)nc23)cc1 [Compound 39] | > 1 µM | –
19 | O=C(Nc1ccc(CCN2C(=O)c3ccccc3C2=O)cc1)c1ccc(O)c2[nH]c(-c3ccc(Cl)cc3)nc12 [Compound 18] | > 1 µM | –
20 | CS(=O)(=O)NCCc1ccc(NC(=O)c2ccc(O)c3[nH]c(-c4ccc(F)cc4Cl)nc23)cc1 [Compound 41] | > 1 µM | –

Row | Structure (SMILES) | IC50 [1] | IC50 (IC50 (μM))
21 | CCS(=O)(=O)NCCc1ccc(NC(=O)c2ccc(O)c3[nH]c(-c4ccc(Cl)cc4Cl)nc23)cc1 [Compound 32] | 0.5 µM | –
22 | CCCCNC(=O)c1ccc(O)c2[nH]c(-c3ccc(Cl)cc3Cl)nc12 [Compound 176] | 0.45 µM | –
23 | CCN1CCN(CC(=O)Nc2ccc(CCNC(=O)c3ccc(O)c4[nH]c(-c5ccc(F)cc5Cl)nc34)cc2)CC1 [Compound 157] | 0.49 µM | –
24 | O=C(NCc1ccc([N+](=O)[O-])cc1)c1ccc(O)c2[nH]c(-c3ccc(Cl)cc3Cl)nc12 [Compound 56] | 0.7 µM | –
25 | Nc1ccc(CCNC(=O)c2ccc(O)c3nc(-c4ccccc4)[nH]c23)cc1 [Compound 60] | 0.35 µM | –
26 | CCN(CC)CC(=O)Nc1ccc(CCNC(=O)c2ccc(O)c3[nH]c(-c4ccc(Cl)cc4)nc23)cc1 [Compound 89] | 0.32 µM | –
27 | CS(=O)(=O)NCCc1ccc(NC(=O)c2ccc(O)c3[nH]c(-c4ccc(F)cc4)nc23)cc1 [Compound 33] | > 1 µM | –
28 | O=C(NCCN1CCOCC1)c1ccc(O)c2[nH]c(-c3ccc(Cl)cc3)nc12 [Compound 78] | > 1 µM | –
29 | O=C(NCc1ccc([N+](=O)[O-])cc1)c1ccc(O)c2[nH]c(-c3ccc(Cl)cc3)nc12 [Compound 53] | > 1 µM | –
30 | O=C(NCc1ccccc1)c1ccc(O)c2[nH]c(-c3ccc(Cl)cc3Cl)nc12 [Compound 55] | > 1 µM | –
31 | O=C(NCCc1ccccc1)c1ccc(O)c2nc(-c3ccccc3)[nH]c12 [Compound 57] | 0.58 µM | –
32 | CCCCNC(=O)c1ccc(O)c2[nH]c(-c3ccccc3)nc12 [Compound 162] | 0.24 µM | –
33 | O=C(NCCCN1CCOCC1)c1ccc(O)c2[nH]c(-c3ccccc3)nc12 [Compound 166] | > 1 µM | –
34 | O=C(NCCN1CCOCC1)c1ccc(O)c2[nH]c(-c3ccc(Cl)cc3Cl)nc12 [Compound 108] | > 1 µM | –
35 | CCN(CC)CC(=O)Nc1ccc(CCNC(=O)c2ccc(O)c3[nH]c(-c4ccc(F)cc4Cl)nc23)cc1 [Compound 159] | 0.68 µM | –
36 | Cc1ccc(S(=O)(=O)Nc2ccc(CCNC(=O)c3ccc(O)c4[nH]c(-c5ccc(F)c(Cl)c5)nc34)cc2)cc1 [Compound 160] | > 1 µM | –
37 | O=C(NCCNc1ccc([N+](=O)[O-])cn1)c1ccc(O)c2[nH]c(-c3ccc(Cl)cc3)nc12 [Compound 81] | > 1 µM | –
38 | O=C(NCCc1ccccn1)c1ccc(O)c2[nH]c(-c3ccccc3)nc12 [Compound 70] | > 1 µM | –
39 | Nc1ccc(NC(=O)c2ccc(O)c3[nH]c(-c4ccccc4)nc23)cc1 [Compound 4] | > 1 µM | –

Continued by falling IC50 [1], values first:

Row | IC50 [1] | Structure (SMILES) | IC50 (IC50 (μM))
40 | 0.21 µM | O=C(NCCN1CCOCC1)c1ccc(O)c2[nH]c(-c3ccc(F)cc3Cl)nc12 [Compound 147] | –
41 | 0.18 µM | Cc1ccc(S(=O)(=O)NCCc2ccc(NC(=O)c3ccc(O)c4[nH]c(-c5ccccc5)nc34)cc2)cc1 [Compound 9] | –
42 | 0.18 µM | CN1CCN(CC(=O)Nc2ccc(CCNC(=O)c3ccc(O)c4[nH]c(-c5ccc(F)cc5)nc34)cc2)CC1 [Compound 127] | –
43 | 0.17 µM | Nc1ccc(CCNC(=O)c2ccc(O)c3[nH]c(-c4ccc(F)cc4)nc23)cc1 [Compound 131] | –
44 | 0.17 µM | COc1ccccc1CCNC(=O)c1ccc(O)c2[nH]c(-c3ccc(Cl)cc3)nc12 [Compound 97] | –
45 | 0.13 µM | Nc1ccc(CCNC(=O)c2ccc(O)c3[nH]c(-c4ccc(Cl)cc4)nc23)cc1 [Compound 90] | –
46 | 0.12 µM | O=C(NCCc1ccc([N+](=O)[O-])cc1)c1ccc(O)c2[nH]c(-c3ccc(Cl)cc3)nc12 [Compound 72] | –
47 | 0.12 µM | O=C(NCCc1ccc(N2C(=O)c3ccccc3C2=O)cc1)c1ccc(O)c2[nH]c(-c3ccc(Cl)cc3)nc12 [Compound 79] | –
48 | 0.11 µM | O=C(NC1CCC(O)CC1)c1ccc(O)c2[nH]c(-c3ccc(Cl)cc3)nc12 (stereo not drawn) [Compound 15] | –
49 | 0.07 µM | CC(=O)Nc1ccc(CCNC(=O)c2ccc(O)c3[nH]c(-c4ccc(F)cc4Cl)nc23)cc1 [Compound 146] | –
50 | 0.06 µM | Cc1ccc(S(=O)(=O)Nc2ccc(CCNC(=O)c3ccc(O)c4[nH]c(-c5ccccc5)nc34)cc2)cc1 [Compound 65] | –
51 | 0.06 µM | Cc1nccn1CCCNC(=O)c1ccc(O)c2[nH]c(-c3ccc(Cl)cc3Cl)nc12 [Compound 183] | –
52 | 0.04 µM | CS(=O)(=O)NCCc1ccc(NC(=O)c2ccc(O)c3[nH]c(-c4ccccc4)nc23)cc1 [Compound 10] | –
53 | 0.03 µM | Cc1cn(CCCNC(=O)c2ccc(O)c3[nH]c(-c4ccc(Cl)cc4Cl)nc23)cn1 [Compound 181] | –
54 | 0.03 µM | Cc1nccn1CCCNC(=O)c1ccc(O)c2[nH]c(-c3ccc(F)cc3F)nc12 [Compound 195] | –
55 | 0.022 µM | O=C(NCCc1ccccc1O)c1ccc(O)c2[nH]c(-c3ccc(Cl)cc3)nc12 [Compound 96] | –
56 | 0.02 µM | CS(=O)(=O)NCCc1ccc(NC(=O)c2ccc(O)c3[nH]c(-c4ccc(F)c(Cl)c4)nc23)cc1 [Compound 45] | –
57 | 0.009 µM | CS(=O)(=O)Nc1ccc(CCNC(=O)c2ccc(O)c3nc(-c4ccc(Cl)cc4)[nH]c23)cc1 [Compound 75] | –
58 | 0.009 µM | Cc1cn(CCCNC(=O)c2ccc(O)c3[nH]c(-c4ccc(F)c(Cl)c4)nc23)cn1 [Compound 202] | –
59 | 0.008 µM | O=C(NCCCn1ccnc1)c1ccc(O)c2[nH]c(-c3ccc(F)cc3F)nc12 [Compound 192] | –
60 | 0.008 µM | O=C(NCCCn1cnc(Cl)c1Cl)c1ccc(O)c2nc(-c3ccc(Cl)cc3Cl)[nH]c12 [Compound 182] | –
61 | 0.007 µM | CCS(=O)(=O)NCCc1ccc(NC(=O)c2ccc(O)c3[nH]c(-c4ccc(F)cc4)nc23)cc1 [Compound 35] | –
62 | 0.006 µM | Cc1ccc(S(=O)(=O)Nc2ccc(CCNC(=O)c3ccc(O)c4[nH]c(-c5ccc(F)cc5Cl)nc34)cc2)cc1 [Compound 144] | –
63 | 0.002 µM | CS(=O)(=O)Nc1ccc(CCNC(=O)c2ccc(O)c3[nH]c(-c4ccc(F)cc4Cl)nc23)cc1 [Compound 143] | –
